From patent publication US9657022B2, “7-OXO-1,6-diazabicyclo[3.2.1]octane derivatives and their use as antibacterial agents” (WOCKHARDT LIMITED, priority 2014, dated 2017)
In brackets after ≈: the same amount, converted by molar mass. Several values for one entry are separate records, joined by “and”; a condition that tells them apart may be missing. Equal entries are not always repeated. Where two headings read alike, the source gives them in different places.

Assays:
[1] = target: T1, Class D beta-lactamase OXA 23 (A. baumannii NCTC 13301) (Acinetobacter baumannii, UniProt Q9L4P2); test: Beta-lactamase enzyme inhibition (Nitrocefin, crude enzyme); assay type: biochemical; conditions: Class D, A. baumannii NCTC 13301 (OXA 23); read-out: Beta-lactamase enzyme inhibition IC50
T1 construct: preincubated mixture of crude enzyme and the compounds; endogenous in cells; host or cells: A. baumannii NCTC 13301
T1 sequence (Q9L4P2 18-273): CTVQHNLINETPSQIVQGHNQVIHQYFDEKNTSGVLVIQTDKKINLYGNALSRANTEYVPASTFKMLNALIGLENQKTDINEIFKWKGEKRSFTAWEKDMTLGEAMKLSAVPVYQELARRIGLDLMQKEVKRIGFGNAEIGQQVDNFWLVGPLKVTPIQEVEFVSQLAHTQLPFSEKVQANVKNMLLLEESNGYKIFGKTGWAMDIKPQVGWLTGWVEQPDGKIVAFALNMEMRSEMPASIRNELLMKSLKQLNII
Method: (§1) Absorbance was measured at 485 nm by UV-spectrophotometer. The IC50 was calculated by plotting absorbance against concentration through Sigmoidal dose response curve using Graph Pad software.
(§2) The enzyme inhibition was expressed as IC50.

[2] = target: T2, Class A beta-lactamase SHV 18 (K. pneumoniae ATCC 700603) (Klebsiella pneumoniae, UniProt P0AD64, E235K/G234A/I4F/R39S); test: as above; assay type: biochemical; conditions: Class A, K. pneumoniae ATCC 700603 (SHV 18); read-out: Beta-lactamase enzyme inhibition IC50
T2 sequence (P0AD64 1-286 I4F/R39S/G234A/E235K): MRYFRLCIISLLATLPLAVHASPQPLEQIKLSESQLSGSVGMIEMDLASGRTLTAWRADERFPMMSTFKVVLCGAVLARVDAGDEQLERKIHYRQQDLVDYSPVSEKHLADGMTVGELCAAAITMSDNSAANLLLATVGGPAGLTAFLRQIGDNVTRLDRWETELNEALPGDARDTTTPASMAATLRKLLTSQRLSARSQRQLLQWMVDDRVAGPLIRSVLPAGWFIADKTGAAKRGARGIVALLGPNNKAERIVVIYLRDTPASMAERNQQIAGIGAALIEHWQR
Method: as §1, §2

[3] = tested on: Class C beta-lactamase CMY/DHA (E. coli M50); test: as above; assay type: biochemical
Method: as §1, §2

[4] = target: T3, Class C beta-lactamase P99 (E. cloacae J137) (Enterobacter cloacae, UniProt P05364); test: as above; assay type: biochemical
T3 construct: preincubated mixture of crude enzyme and the compounds; endogenous in cells; host or cells: E. cloacae J137
T3 sequence (P05364 21-381): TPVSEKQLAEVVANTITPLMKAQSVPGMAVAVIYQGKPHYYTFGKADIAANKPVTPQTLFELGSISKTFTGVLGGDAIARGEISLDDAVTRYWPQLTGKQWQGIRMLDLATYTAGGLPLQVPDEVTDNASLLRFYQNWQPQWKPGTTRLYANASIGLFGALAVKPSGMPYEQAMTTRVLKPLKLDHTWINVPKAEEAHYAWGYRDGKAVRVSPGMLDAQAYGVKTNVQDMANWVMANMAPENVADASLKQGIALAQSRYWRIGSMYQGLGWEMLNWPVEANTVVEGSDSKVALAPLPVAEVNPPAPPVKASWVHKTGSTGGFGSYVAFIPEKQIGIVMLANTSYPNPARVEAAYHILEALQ
Method: as §1

[5] = target: Class D beta-lactamase OXA 26 (A. baumannii NCTC 13303) (Acinetobacter baumannii, UniProt Q9F0V2); test: as above; assay type: biochemical; conditions: A. baumannii NCTC 13303 (OXA 26), read-out: Beta-lactamase enzyme inhibition IC50
Sequence of Class D beta-lactamase OXA 26 (A. baumannii NCTC 13303) (Q9F0V2 entry or part of it): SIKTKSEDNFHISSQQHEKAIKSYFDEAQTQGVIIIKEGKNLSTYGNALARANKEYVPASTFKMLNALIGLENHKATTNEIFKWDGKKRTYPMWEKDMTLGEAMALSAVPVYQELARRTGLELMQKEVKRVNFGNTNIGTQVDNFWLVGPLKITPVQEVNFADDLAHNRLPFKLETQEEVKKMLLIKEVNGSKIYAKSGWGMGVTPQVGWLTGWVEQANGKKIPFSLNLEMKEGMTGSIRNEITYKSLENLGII
Method: as §1

P. aeruginosa PAO1 = test: Antibacterial activity (MIC), agar dilution per CLSI; assay type: cell-based; conditions: Pseudomonas aeruginosa
Method: (§3) The biological activity of representative compounds according to the invention against various bacterial strains was investigated. In a typical study, overnight grown bacterial cultures were diluted appropriately and inoculated on the agar media containing doubling dilutions of the test compounds. Observations for growth or no growth was performed after 16-20 hours of incubation at 35±2° C. in the ambient air. The overall procedure was performed as per Clinical and Laboratory Standards Institute (CLSI) recommendations, (Clinical and Laboratory Standards Institute (CLSI), Performance Standards for Antimicrobial Susceptibility Testing, 20th Informational Supplement, M07-A9, Volume 32, No. 2, 2012). Molten Mueller Hinton Agar (BD, USA) containing serial dilutions of each antibacterial agent were poured on to the plates and allowed to solidify. Appropriate suspensions from the freshly grown cultures were prepared in normal saline so that about 10^4 CFU/spot of the organism was delivered on to the drug containing agar plates using automated multipoint inoculator (Mast, UK). The plates were incubated in Biochemical oxygen demand (BOD) incubator at 37° C. for 18 hours and then examined for growth.
(§4) Table 3 details the antibacterial activity of representative compound of Formula (I), (2S,5R)-sulfuric acid mono-{2-[N′-(2-(S)-pyrrolidin-2-yl-acetyl)-hydrazinocarbonyl]-7-oxo-1,6-diaza-bicyclo[3.2.1]oct-6-yl}ester (Compound of Example 1), against various Multi Drug Resistant (MDR) Gram-negative bacterial strains. The activities are expressed as Minimum Inhibitory Concentrations (MICs) (mcg/ml).

P. aeruginosa 2779 = test: as above; assay type: cell-based; conditions: Pseudomonas aeruginosa
Method: as §3, §4

C. frundaii 58 MP = test: as above; assay type: cell-based
Method: as §3, §4

P. aeruginosa ATCC 27853 = test: as above; assay type: cell-based; conditions: Pseudomonas aeruginosa, ATCC27853
Method: as §3, §4

E. coli M 49 = test: as above; assay type: cell-based; conditions: Escherichia coli, M49
Method: as §3, §4

K. pneumoniae H 525 = test: as above; assay type: cell-based; conditions: Klebsiella pneumoniae, H525
Method: as §3, §4

K. pneumoniae B 88 = test: as above; assay type: cell-based; conditions: Klebsiella pneumoniae, B88
Method: as §3, §4

K. pneumoniae S 21 = test: as above; assay type: cell-based; conditions: Klebsiella pneumoniae, S21
Method: as §3, §4

P. aeruginosa R 20 = test: as above; assay type: cell-based; conditions: Pseudomonas aeruginosa, R20
Method: as §3, §4

E. coli NCTC 13352 = test: as above; assay type: cell-based; conditions: Escherichia coli, NCTC13352
Method: as §3, §4

E. coli 7 MP = test: as above; assay type: cell-based; conditions: Escherichia coli
Method: as §3, §4

E. cloacae M 20 = test: as above; assay type: cell-based; conditions: Enterobacter cloacae, M20
Method: as §3, §4

E. coli M 50 = test: as above; assay type: cell-based; conditions: Escherichia coli, M50
Method: as §3, §4

E. coli NCTC 13351 = test: as above; assay type: cell-based; conditions: Escherichia coli, NCTC13351
Method: as §3, §4

E. coli M50 = test: Zone of inhibition, agar well, with and without ceftazidime; assay type: cell-based; conditions: E. coli M50
Method: In a typical experiment, two sets of plates containing growth media (Molten Mueller Hilton Agar) and bacterial strains were prepared. One set of plates was taken as control (without ceftazidime) and other set contained ceftazidime. The media was allowed to solidify and wells were punched later, into which varying concentrations of compounds according to the invention were poured. A two-fold serial dilution range of each of the compounds according to invention was prepared and 50 μl of each of the dilution was added into the punched well. The plates were then incubated at 37° C. for 18 hours in BOD incubator and diameters of zone of inhibition were measured after the completion of the incubation.
The Table 6 provides the antibacterial activity of the combination comprising compounds according to invention and ceftazidime. The compounds according to invention were tested at 0.12, 0.25, 0.5 and 1 μg/well.

## O=C(C[C@@H]1CCCN1)NNC(=O)[C@@H]1CC[C@@H]2CN1C(=O)N2OS(=O)(=O)O [Example 1, (2S,5R)-Sulfuric acid mono-{2-[N′-(2-(S)-pyrrolidin-2-yl-acetyl)-hydrazinocarbonyl]-7-oxo-1,6-diaza-bicyclo[3.2.1]oct-6-yl}ester]
[1]
  IC50: 2390 nM
[2]
  IC50: 80 nM and 81 nM
[3]
  IC50: 60 nM
[3]; listed as Compound of Example 1
  IC50: 65 nM
[4]
  IC50: 27 nM
[5]
  IC50: 4770 nM
P. aeruginosa PAO1
  MIC: 4 µg/mL (≈ 10.2 µM)
P. aeruginosa 2779
  MIC: 8 µg/mL (≈ 20.4 µM)
C. frundaii 58 MP
  MIC: 0.5 µg/mL (≈ 1.28 µM)
P. aeruginosa ATCC 27853
  MIC: 8 µg/mL (≈ 20.4 µM)
E. coli M 49
  MIC: 2 µg/mL (≈ 5.11 µM)
K. pneumoniae H 525
  MIC: 0.5 µg/mL (≈ 1.28 µM)
K. pneumoniae B 88
  MIC: 0.5 µg/mL (≈ 1.28 µM)
K. pneumoniae S 21
  MIC: 2 µg/mL (≈ 5.11 µM)
P. aeruginosa R 20
  MIC: 16 µg/mL (≈ 40.9 µM)
E. coli NCTC 13352
  MIC: 0.5 µg/mL (≈ 1.28 µM)
E. coli 7 MP
  MIC: 1 µg/mL (≈ 2.55 µM)
E. cloacae M 20
  MIC: 0.5 µg/mL (≈ 1.28 µM)
E. coli M 50
  MIC: 0.5 µg/mL (≈ 1.28 µM)
E. coli NCTC 13351
  MIC: 0.5 µg/mL (≈ 1.28 µM)
E. coli M50; compound 0.25 μg/well + Ceftazidime 10 μg/ml
  Diameter of Zone of Inhibition, Compound + Ceftazidime (10 μg/ml): 19 mm
E. coli M50; compound 0.5 μg/well + Ceftazidime 10 μg/ml
  Diameter of Zone of Inhibition, Compound + Ceftazidime (10 μg/ml): 20.5 mm
E. coli M50; compound 1 μg/well + Ceftazidime 10 μg/ml
  Diameter of Zone of Inhibition, Compound + Ceftazidime (10 μg/ml): 22.5 mm
E. coli M50; compound […] + Ceftazidime 10 μg/ml
  Diameter of Zone of Inhibition, Compound + Ceftazidime (10 μg/ml): 17 mm
E. coli M50; Escherichia coli, compound alone, 0.12 μg/well, read-out: Diameter of Zone of Inhibition, Compound
  zone of inhibition at […]: 10.5 mm
E. coli M50; Escherichia coli, compound alone, 0.25 μg/well, read-out: Diameter of Zone of Inhibition, Compound
  zone of inhibition at 0.25 µg/disc: 14 mm
E. coli M50; Escherichia coli, compound alone, 0.5 μg/well, read-out: Diameter of Zone of Inhibition, Compound
  zone of inhibition at 0.5 µg/disc: 16 mm
E. coli M50; Escherichia coli, compound alone, 1 μg/well, read-out: Diameter of Zone of Inhibition, Compound
  zone of inhibition at 1 µg/disc: 18 mm
